Molecular target: T1, human TMEM16A (TMEM16Aabc variant) (Homo sapiens, UniProt Q5XXA6, DEL476-501)
T1 sequence (Q5XXA6 with tags, fused parts or gaps isoform Q5XXA6-5 DEL539-564): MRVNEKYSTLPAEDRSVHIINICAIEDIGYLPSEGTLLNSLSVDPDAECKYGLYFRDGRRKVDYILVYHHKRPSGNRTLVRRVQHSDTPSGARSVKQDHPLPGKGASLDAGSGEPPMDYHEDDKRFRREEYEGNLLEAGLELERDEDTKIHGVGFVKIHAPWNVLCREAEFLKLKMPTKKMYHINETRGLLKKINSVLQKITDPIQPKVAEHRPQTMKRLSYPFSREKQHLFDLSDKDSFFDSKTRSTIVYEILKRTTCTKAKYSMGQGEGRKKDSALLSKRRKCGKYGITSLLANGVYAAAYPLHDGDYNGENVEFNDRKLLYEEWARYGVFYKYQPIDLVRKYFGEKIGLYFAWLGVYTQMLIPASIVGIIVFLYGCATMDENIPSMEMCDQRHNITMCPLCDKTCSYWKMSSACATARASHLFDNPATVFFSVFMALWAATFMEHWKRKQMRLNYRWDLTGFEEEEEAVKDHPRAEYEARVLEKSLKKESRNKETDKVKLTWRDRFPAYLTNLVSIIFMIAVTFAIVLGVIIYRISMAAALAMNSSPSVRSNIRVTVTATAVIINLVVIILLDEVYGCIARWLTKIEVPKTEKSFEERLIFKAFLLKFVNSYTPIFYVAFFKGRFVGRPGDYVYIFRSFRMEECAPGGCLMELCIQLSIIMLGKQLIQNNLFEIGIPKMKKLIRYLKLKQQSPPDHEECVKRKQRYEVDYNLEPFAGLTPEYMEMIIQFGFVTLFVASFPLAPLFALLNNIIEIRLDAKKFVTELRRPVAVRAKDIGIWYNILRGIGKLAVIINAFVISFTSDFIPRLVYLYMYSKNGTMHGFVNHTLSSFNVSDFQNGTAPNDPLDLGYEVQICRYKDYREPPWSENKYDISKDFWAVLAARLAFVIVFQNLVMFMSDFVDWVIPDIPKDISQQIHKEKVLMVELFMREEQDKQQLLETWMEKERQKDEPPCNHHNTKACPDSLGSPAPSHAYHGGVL
Experiment: Automated whole-cell patch clamp (Qpatch) TMEM16A potentiator assay in recombinant cells
Assay type: cell-based
Settings: FRT cells stably expressing human TMEM16A, intracellular calcium at EC20; for % Potentiation @ 3.33 μM Avg: 3.33 μM solution of test compound, percentage increase of baseline TMEM16A current, peak current at +70 mV; for EC50: calculated from cumulative concentration response curve, whole-cell patch clamp
Procedure: Automated Whole-Cell Patch Clamp Assay to Detect TMEM16A Activity in Recombinant Cells
Cell Culture and Preparation
Fisher rat thyroid (FRT) cells stably expressing human TMEM16A (TMEM16Aabc variant; Dr Luis Galietta, Insituto Giannina, Italy) were cultured in T-75 flasks in Hams F-12 media with Coon's modification (Sigma) supplemented with 10% (v/v) foetal bovine serum, penicillin-streptomycin (10,000 U/mL/10000 μg/mL), G-418 (750 μg/mL), L-glutamine (2 mM) and sodium bicarbonate solution (7.5% v/v). At ˜90% confluence cells were harvested for experiments by detachment with a 2:1 (v/v) mixture of Detachin (BMS Biotechnology) and 0.25% (w/v) trypsin-EDTA. Cells were diluted to a density of 3.5-4.5×10^6 cells/mL with media consisting of CHO-S-SFM II (Sigma), 25 mM HEPES (Sigma) and Soy bean trypsin inhibitor (Sigma).
Whole-Cell Patch Clamp Recording
FRT-TMEM16A cells were whole-cell patch clamped using an automated planar patch clamp system (Qpatch, Sophion). Briefly, once high resistance (GOhm) seals were established between the cells and the planar recording array the patch was ruptured using suction pulses to establish the whole-cell recording configuration of the patch clamp technique. The assay employed the following solutions (all reagents Sigma):
Intracellular solution (mM): N-methyl-D-glucamine 130, CaCl2 18.2, MgCl2 1, HEPES 10, EGTA 10, BAPTA 20, Mg-ATP 2, pH 7.25, 325 mOsm with sucrose.
Extracellular solution (mM): N-methyl-D-glucamine 130, CaCl2 2, MgCl2 1, HEPES 10, pH 7.3, 320 mOsm with sucrose.
The intracellular solution buffers intracellular calcium at levels required to give ˜20% activation of the maximal TMEM16A mediated current (EC20 for calcium ions). Cells were voltage clamped at a holding potential of −70 mV and a combined voltage step (to +70 mV)/ramp (−90 my to +90 mV) was applied at 0.05 Hz. After a period of current stabilisation test compounds, solubilised in 100% (v/v) DMSO and subsequently diluted into extracellular solution, were applied to generate a cumulative concentration response curve. Each concentration of test compound was incubated for 5 minutes before addition of the next concentration. After the final concentration was tested a supramaximal concentration of either a known active positive modulator or the TMEM16A inhibitor, CaCCinhA01 (Del La Fuente et al, 2008) was added to define the upper and lower limits of the assay.
Compound activity was quantified by measuring the increase in current upon compound addition and expressing this as a percentage increase of baseline TMEM16A current level. Percentage increases in current were determined for each concentration and the data plotted as a function of concentration using either the Qpatch software or Graphpad Prism v6.05 providing the concentration which gave 50% of its maximal effect (EC50) and maximum efficacy (percentage of baseline increase).
In FIG. 1, IBL equals baseline current, I[#1] equals the peak current during test compound concentration 1 incubation period and so on.
Peak TMEM16A current at +70 mV was plotted as a function of time over the assay period. Baseline current (IBL) was measured after a period of stabilisation. The increase in current for each compound addition was determined by taking the peak current during the incubation period and subtracting the current from the previous recording period and then expressing this as a percentage of the baseline current. For test compound concentration 1 in FIG. 1 this is:
For each additional concentration tested the increase in current was determined by subtracting the current from the previous incubation period and normalising the baseline value—for test concentration 2 in FIG. 1 this is:
The values for each test concentration were plotted as a cumulative function of concentration e.g. for test concentration two this would be the sum of the peak changes measured during concentration one plus concentration two.

Row | SMILES | % Potentiation @ 3.33 μM Avg | EC50
1 | CC(C)(CO)c1cc(F)c(Cc2nc3cc(C(=O)NCC4(C(F)(F)F)CC4)ccc3[nH]2)cc1O [Example 29, 2-[[2-Fluoro-5-hydroxy-4-(2-hydroxy-1,1-dimethyl-ethyl)phenyl]methyl]-N-[[1-(trifluoromethyl)cyclopropyl]methyl]-1H-benzimidazole-5-carboxamide] | 183% | 0.496 µM
2 | CC(C)(C)c1nc2ccc(C(=O)NCC3CCCCCC3)cc2[nH]1 [Example 20, 2-tert-Butyl-N-(cycloheptylmethyl)-3H-benzimidazole-5-carboxamide] | 85.9% | 0.776 µM
3 | CC1(c2nc3ccc(C(=O)NCC4CCCCCC4)cc3[nH]2)CCC1 [Example 28, N-(Cycloheptylmethyl)-2-(1-methylcyclobutyl)-3H-benzimidazole-5-carboxamide] | 82% | 0.61 µM
4 | O=C(NCCC(F)(F)F)c1ccc2[nH]c(Cc3ccccc3)nc2c1 [Example 24, 2-Benzyl-N-(3,3,3-trifluoropropyl)-1H-benzimidazole-5-carboxamide] | 69% | 1.1 µM
5 | CC(C)(C)c1cc(F)c(CC(=O)Nc2ccc3[nH]c(C4(C(F)(F)F)CC4)nc3c2)cc1O [Example 23, 2-(4-tert-Butyl-2-fluoro-5-hydroxy-phenyl)-N-[2-[1-(trifluoromethyl)cyclopropyl]-1H-benzimidazol-5-yl]acetamide] | 153% | 0.052 µM
6 | CC(C)(C)c1cc(F)c(Cc2nc3cc(C(=O)NCC4(C(F)(F)F)CC4)ccc3[nH]2)cc1O [Example 21.1, 2-[(4-tert-Butyl-2-fluoro-5-hydroxy-phenyl)methyl]-N-[[1-(trifluoromethyl)cyclopropyl]methyl]-1H-benzimidazole-5-carboxamide] | 275% | 0.227 µM
7 | CC(C)(C)c1cc(F)c(Cc2nc3cc(C(=O)NCCC(F)(F)F)ccc3[nH]2)cc1O [Example 21.2, 2-[(4-tert-Butyl-2-fluoro-5-hydroxy-phenyl)methyl]-N-(3,3,3-trifluoropropyl)-1H-benzimidazole-5-carboxamide] | 272% | 0.15 µM
8 | O=C(NCC1CCCCCC1)c1ccc2[nH]c(Cc3ccccc3O)nc2c1 [Example 25.3, N-(Cycloheptylmethyl)-2-[(2-hydroxyphenyl)methyl]-1H-benzimidazole-5-carboxamide] | 104% | 0.076 µM
9 | CC(C)(O)c1cc(F)c(CC(=O)Nc2ccc3[nH]c(C4(C(F)(F)F)CC4)nc3c2)cc1O [Example 22, 2-[2-Fluoro-5-hydroxy-4-(1-hydroxy-1-methyl-ethyl)phenyl]-N-[2-[1-(trifluoromethyl)cyclopropyl]-1H-benzimidazol-5-yl]acetamide] | 149% | 0.168 µM
10 | O=C(NCC1CCCCCC1)c1ccc2[nH]c(Cc3cc(F)ccc3O)nc2c1 [Example 25.1, N-(Cycloheptylmethyl)-2-[(5-fluoro-2-hydroxy-phenyl)methyl]-1H-benzimidazole-5-carboxamide] | 142% | 0.076 µM
11 | O=C(NCC1CCCCCC1)c1ccc2[nH]c(Cc3ccc(F)cc3O)nc2c1 [Example 25.4, N-(Cycloheptylmethyl)-2-[(4-fluoro-2-hydroxy-phenyl)methyl]-1H-benzimidazole-5-carboxamide] | 120% | 0.13 µM
12 | CC(C)(C)Cc1nc2cc(NC(=O)Cc3cc(Cl)ccc3O)ccc2[nH]1 [Example 26, 2-(5-Chloro-2-hydroxy-phenyl)-N-[2-(2,2-dimethylpropyl)-1H-benzimidazol-5-yl]acetamide] | 69% | 0.098 µM
13 | O=C(CC1C2CC3CC(C2)CC1C3)Nc1ccc2[nH]c(Cc3ccccc3O)nc2c1 (stereo not drawn) [Example 5, 2-(2-Adamantyl)-N-[2-[(2-hydroxyphenyl)methyl]-1H-benzimidazol-5-yl]acetamide] | 156.9% | 0.079 µM
14 | CC(C)(C)c1cc(F)c(Cc2nc3cc(C(=O)NC4(C(F)(F)F)CC4)ccc3[nH]2)cc1O [Example 21, 2-[(4-tert-Butyl-2-fluoro-5-hydroxy-phenyl)methyl]-N-[1-(trifluoromethyl)cyclopropyl]-1H-benzimidazole-5-carboxamide] | 262% | 0.099 µM
15 | O=C(NCC1CCCC1)c1ccc2[nH]c(Cc3ccccc3)nc2c1 [Example 24.1, 2-Benzyl-N-(cyclopentylmethyl)-1H-benzimidazole-5-carboxamide] | 106% | 0.176 µM
16 | O=C(CC12CC3CC(CC(C3)C1)C2)Nc1ccc2[nH]c(CC3CCCCC3)nc2c1 [Example 1, 2-(1-Adamantyl)-N-[2-(cyclohexylmethyl)-1H-benzimidazol-5-yl]acetamide] | 157.3% | 0.338 µM
17 | Nc1c2ccc(NC(=O)CC34CC5CC(CC(C5)C3)C4)cc2nn1Cc1ccccc1O [Example 11, 2-(1-Adamantyl)-N-[3-amino-2-[(2-hydroxyphenyl)methyl]indazol-6-yl]acetamide] | 122.7% | 0.098 µM
18 | CC(C)(C)c1nc2cc(NC(=O)Cc3cc(Cl)ccc3O)ccc2[nH]1 [Example 18, N-(2-tert-Butyl-1H-benzimidazol-5-yl)-2-(5-chloro-2-hydroxy-phenyl)acetamide] | 95.9% | 0.156 µM
19 | CC(C)(O)c1cc(F)c(Cc2nc3cc(C(=O)NC4(C(F)(F)F)CC4)ccc3[nH]2)cc1O [Example 31.1, 2-[[2-Fluoro-5-hydroxy-4-(1-hydroxy-1-methyl-ethyl)phenyl]methyl]-N-[1-(trifluoromethyl)cyclopropyl]-1H-benzimidazole-5-carboxamide] | 108% | –
20 | O=C(CC12CC3CC(CC(C3)C1)C2)Nc1ccc2[nH]c(Cc3cccnc3Cl)nc2c1 [Example 4, 2-(1-Adamantyl)-N-[2-[(2-chloro-3-pyridyl)methyl]-1H-benzimidazol-5-yl]acetamide] | 187.3% | 0.732 µM

Reference: patent US12552770B2, “Compounds for treating respiratory disease” (TMEM16A Limited, priority 2020, dated 2026)
